From patent publication US5922887A, “Diaryldiamine derivatives and their use as delta opiod (ANT)-agonists” (SmithKline Beecham SpA, priority 1995, dated 1999) come the findings set out here.

pIC50, pKi: −log10 of the molar value. Structures can show the parent of a compound that is named as a salt.

Experiment [1] has as its target T1, delta opioid receptor (Mus musculus, UniProt P32300). The experiment in a line: radioligand binding assay, delta receptor ([3H]-DADLE, mouse brain membranes). As to conditions: [3H]-DADLE 1.3 nM in presence of 40 nM DAMGO, read-out: Ki δ. As to the method:
(§1) The activity of the compounds of the present invention as selective delta ligands is determined in radioligand binding assays as described below.
(§2) Mouse brain membranes were prepared as described by Kosterlitz (Br. J. Pharmacol., 1981, 73, 939.). The binding of the preferential delta ligand [^3 H]-[D-Ala^2, D-Leu^5 ]-enkephalin (DADLE) was evaluated at its KD concentration (1.3 nM) in presence of 40 nM of the unlabelled mu ligand [D-Ala^2, MePhe^4, Gly-ol^5 ]-enkephalin (DAMGO). The binding of the mu ligand [^3 H]-DAMGO (Eur. J. Pharmacol., 1989, 166, 213) and of the kappa ligand [^3 H]-U69593 (Excerpta Medica, 1990, 211) were carried out at 0.5 nM. The non-specific binding was determined in presence of naloxone (10 μM) for all tritiated ligands. Binding data were expressed as percentage of inhibition and fitted the following equation: f(x)=100·X/(IC50 +X) where X are cold drug concentration values. The IC50 obtained were used to calculate the inhibitory constants (Ki) accordingly to the Cheng and Prusoff relation (Biochenl. Pharmaco., 1973, 22, 3099).

In a further experiment the target is T2, mu opioid receptor (Mus musculus, UniProt P42866).
T2 construct: Mouse brain membranes were prepared as described by Kosterlitz; from tissue; host or cells: mouse brain membranes
The experiment can be described thus: radioligand binding assay, mu receptor ([3H]-DAMGO, mouse brain membranes). The following applies: selectivity ratio mu over delta. How it is done:
as §1, §2

A further experiment deals with T3, kappa opioid receptor (Mus musculus, UniProt P33534).
T3 construct: Mouse brain membranes were prepared as described by Kosterlitz; from tissue; host or cells: mouse brain membranes
The experiment in a line: radioligand binding assay, kappa receptor ([3H]-U69593, mouse brain membranes). The following applies: selectivity ratio kappa over delta. How it is done:
as §1, §2

The target in experiment [2] is T1, delta opioid receptor. The experiment in a line: mouse vas deferens (MVD) bioassay, delta agonist/antagonist activity. Also noted: Vasa deferentia were obtained from CD-1 mice; from tissue; host or cells: vas deferens of CD-1 mice. How it is done:
The delta agonist/antagonist activity of the compounds of the present invention is determined in the mouse vas deferens (MVD) bioassay as described below.
Vasa deferentia were obtained from CD-1 mice and were suspended in a Mg^2+ -free Krebs buffer at 37° C. The tissues were electrically stimulated with pulse trans having the following parameters: train duration 50 ms, stimulus duration 2 ms, frequency of stimuli 50 Hz, maximal voltage 60-70 V, train frequency 0.1 Hz. Concentration response curves for each compounds were constructed cumulatively. Linear regression analysis and IC50 concentrations were evaluated according to Tallarida and Murray (Manual of Pharmacological Calculations, Springer Verlag N.Y., 1981).

T1 sequence (P32300 whole entry): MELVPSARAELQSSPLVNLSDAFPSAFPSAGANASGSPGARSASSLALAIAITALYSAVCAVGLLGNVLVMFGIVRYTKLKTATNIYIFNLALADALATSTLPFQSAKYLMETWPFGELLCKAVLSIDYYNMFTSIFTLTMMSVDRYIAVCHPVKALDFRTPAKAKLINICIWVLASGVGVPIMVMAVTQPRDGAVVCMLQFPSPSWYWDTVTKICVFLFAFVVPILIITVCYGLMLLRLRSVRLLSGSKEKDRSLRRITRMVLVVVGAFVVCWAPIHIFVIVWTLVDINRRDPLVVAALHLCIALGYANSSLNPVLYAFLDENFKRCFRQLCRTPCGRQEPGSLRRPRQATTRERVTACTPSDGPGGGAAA
T2 sequence (P42866 whole entry): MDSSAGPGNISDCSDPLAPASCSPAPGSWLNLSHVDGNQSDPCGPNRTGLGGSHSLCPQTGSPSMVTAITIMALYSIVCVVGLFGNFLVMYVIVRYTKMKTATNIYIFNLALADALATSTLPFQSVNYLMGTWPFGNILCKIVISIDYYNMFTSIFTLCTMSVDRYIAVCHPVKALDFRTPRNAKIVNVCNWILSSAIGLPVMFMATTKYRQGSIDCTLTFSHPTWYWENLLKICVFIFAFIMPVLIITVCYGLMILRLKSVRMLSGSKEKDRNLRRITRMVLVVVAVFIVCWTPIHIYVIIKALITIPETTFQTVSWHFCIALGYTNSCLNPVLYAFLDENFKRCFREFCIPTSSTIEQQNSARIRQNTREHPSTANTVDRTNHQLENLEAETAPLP
T3 sequence (P33534 whole entry): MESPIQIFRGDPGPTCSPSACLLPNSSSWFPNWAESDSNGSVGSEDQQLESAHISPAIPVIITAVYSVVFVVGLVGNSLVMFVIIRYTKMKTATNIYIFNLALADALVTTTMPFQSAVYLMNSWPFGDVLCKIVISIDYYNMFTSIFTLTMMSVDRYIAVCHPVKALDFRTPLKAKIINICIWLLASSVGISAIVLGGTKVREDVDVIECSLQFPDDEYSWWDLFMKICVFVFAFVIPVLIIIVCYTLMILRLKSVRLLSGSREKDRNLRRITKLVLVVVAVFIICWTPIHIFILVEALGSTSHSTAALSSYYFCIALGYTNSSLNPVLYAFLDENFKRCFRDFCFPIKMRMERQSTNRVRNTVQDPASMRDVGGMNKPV

The term pKi denotes −log10 of the Ki, conventionally taken in molar units. Consider `CCN(CC)C(=O)c1ccc(N(c2cccc(O)c2)C(C)CN(C)C)cc1` (racemic) [Example 9, (±)-N,N-diethyl-4-[[N-(3-dimethylaminoprop-2-yl)-N-(3-hydroxyphenyl)]amino]benzamide oxalate], for which the pKi on delta opioid receptor [1] was 8.41. The “Ki μ/Ki δ” value on mu opioid receptor is reported as 148. Further, the “Ki κ/Ki δ” value at kappa opioid receptor is 153.
One may read the pIC50 as the IC50 on a negative log10 scale, so that one unit is a factor of ten. A high value points to a low IC50. With `CCN(CC)C(=O)c1ccc(N(c2cccc(O)c2)C(C)CN2CCCC2)cc1` (racemic) [Example 5, (±)-N,N-diethyl-4-[[N-(3-hydroxyphenyl)-N-(3-pyrrolidinoprop-2-yl)]amino]benzamide citrate], the pKi on delta opioid receptor [1] is 8.41. Also, the “shift of the dose-response curve caused by NTI” value on delta opioid receptor [2] (30 nM of NTI (naltrindole)) was found to be 10 fold. The pIC50 at delta opioid receptor [2] (electrically stimulated CD-1 mouse vas deferens, 37° C., delta agonists) is 8.15.
